Here are results for 2 compounds from patent publication US9403829B2, “Pharmaceutical compositions of 7-(6-(2-hydroxypropan-2-yl)pyridin-3-yl)-1-((trans)-4-methoxycyclohexyl)-3,4-dihydropyrazino [2,3-b]pyrazin-2(1H)-one, a solid form thereof and methods of their use” (Signal Pharmaceuticals, LLC, priority 2011, dated 2016).

The nature of data set [1]: Phase 1 crossover pharmacokinetic study of tablet and capsule formulations, single oral dose. The format is in vivo, human. The procedure: Certain formulations provided herein were evaluated in a Phase 1, open-label, randomized, crossover study.
On Day 1 of Period 1, following an overnight fast of at least 8 hours, subjects were randomized to one of the following 3 sequences to receive Treatment A, B or C (Table 30).
In Treatment A, one 20-mg reference Compound A API-in-capsule was administered orally after at least 8 hour fast with 240 mL of non-carbonated, room temperature water. In Treatment B, one 20-mg tablet of Compound A (Tablet Formulation XIII) was administered under fasted conditions. In Treatment C, four 5-mg tablets of Compound A (Tablet Formulation XIV) were administered under fasted conditions. The 20-mg tablet and four 5-mg tablets were administered orally after at least 8 hour fast with 240 mL of non-carbonated, room temperature water.
For each period, serial blood samples were collected before dosing (zero hour) and at 0.5, 1, 1.5, 2, 2.5, 3, 4, 6, 8, 12, 24, 48, 72, and 96 hours after dosing. Plasma concentrations of Compound A were determined for determining PK parameters, such as […], AUC0-∞, Cmax, Tmax, t1/2, CL/F, and Vz/F for Compound A. Plasma PK parameters were calculated using non compartmental methods. Analyses of variance (ANOVA) were performed on the natural log-transformed AUC0-t, AUC0-∞, and Cmax for Compound A. The geometric mean ratios (test/reference) and their 90% confidence intervals were also calculated. For Tmax, non parametric analysis was used to produce median differences.

A short description of data set [2]: Phase 1 food effect study (Part 2), single 20-mg oral dose of Compound A tablet, fed vs fasted. It counts as in vivo, human. The following applies: for CL/F / Tmax / AUC(0-inf) / Cmax / half-life / AUC(0-t) / Vd/F: single 20-mg oral dose of Compound A tablet; for CL/F / AUC(0-inf) / Cmax / half-life / AUC(0-t) / Vd/F: geometric mean; for Tmax / AUC(0-inf) / Cmax / half-life / AUC(0-t) / Vd/F: male, human, plasma, po, 20 mg; for Tmax: median, read-out: Tmax; for AUC(0-t): read-out: AUC0-24; for Vd/F: read-out: Vz/F. The protocol:
The primary objectives of this study are: to characterize the biotransformation and excretion of Compound A following a single 20 mg oral dose of Compound A capsule containing a microtracer of [^14C]-Compound A solution in healthy male subjects (Part 1) and to evaluate the effect of a high-fat meal on the pharmacokinetics (PK) of Compound A following a single oral 20-mg dose of Compound A tablet (Part 2).
Part 2 design: Part 2 will be a 2-period crossover study; in Period 1, subjects (n=12) will be randomized to receive either an oral 20 mg dose of Compound A tablet (Treatment B) under fed (n=6) or fasted (n=6) conditions. In Period 2, subjects will receive Treatment B under converse conditions based on treatment assignment in Period 1. After screening, subjects (n=12) eligible for participation in the study will return to the study center on Day −1 for baseline assessments. Subjects who continue to be qualified for participation in the study will be randomized and enrolled in the study on the morning of Day 1. Subjects (n=6) will be enrolled and randomized to receive Treatment B under fed or fasted conditions on the morning of Day 1 after fasting for at least 8 hours. Fed subjects will be served a standard high fat meal breakfast, or its equivalent, that must be consumed within 30 minutes from serving. Dosing must occur 30 minutes (+5 minutes) after serving a subject breakfast. All subjects (fed and fasted) will fast (not to consume any food) until 4 hours post dose. Water will be allowed during the fasting period. Subjects will be domiciled at the study center from Day −1 until the morning of Day 5 of each period. Subjects will be discharged from the study center on the morning of Day 5 upon satisfactory safety review and completion of study-related procedures. Safety and tolerability data will be monitored and collected following each dosing period. Periods 1 and 2 will be separated by a washout period of at least 7 days (no more than 10 days) from prior dose to the next dose. In certain instances, a longer washout may be acceptable if previously agreed to.
Serial blood samples (10 mL) will be collected at predose (0 hour) and at 0.5, 1, 2, 3, 6, 12, 24, 48, 72 and 96 hours post dose for the determination of plasma concentrations of Compound A and the O-desmethyl metabolite of Compound A. Safety will be monitored throughout the study; safety evaluations will include AE reporting, physical examinations, vital sign measurements, ECG, and clinical laboratory safety tests. Concomitant medications will be assessed and recorded throughout the study as well. In addition, during the subjects' stay-in-the clinic (i.e., confinement period), fasting plasma glucose levels will be monitored as part of the clinical laboratory safety tests. For Parts 1 and 2, all subjects will return to the clinic within 7 to days after the last dose for follow up safety assessments. In the event that a subject discontinues prematurely from the study, every reasonable effort should be made (and documented) to ensure that all procedures and evaluations scheduled for the follow-up visit are performed at the time of discontinuation or a follow-up visit should be scheduled within 7 to days from the discontinuation day.
Part 2 dosing: In Part 2, subjects will fast overnight for at least 8 hours prior to Compound A administration. On the morning of Day 1, each subject will receive a 20-mg tablet of Compound A orally. Subjects randomized to receive Compound A under fed conditions will be a served a standard high fat meal (breakfast).
The standard high fat meal or its equivalent must be consumed within minutes of serving. Dosing must occur 30 minutes (+5 minutes) after serving the meal. The tablet will be administered with approximately 240 mL of non-carbonated, room temperature water. After dosing, subjects will continue to fast until 4 hours after dosing.

Data set [3] in a line: Gravimetric vapour sorption (DVS) hygroscopicity. It counts as physicochemical. The following applies: for water uptake (mass gain): between 0 and 80% relative humidity, DVS, 25° C. The procedure:
Sorption isotherms were obtained using a SMS DVS Intrinsic moisture sorption analyser, controlled by DVS Intrinsic Control software v1.0.0.30. The sample temperature was maintained at 25° C. by the instrument controls. The humidity was controlled by mixing streams of dry and wet nitrogen, with a total flow rate of 200 mL/min. The relative humidity was measured by a calibrated Rotronic probe (dynamic range of 1.0-100% RH), located near the sample. The weight change, (mass relaxation) of the sample as a function of % RH was constantly monitored by the microbalance (accuracy±0.005 mg). Typically 5-20 mg of sample was placed in a tared mesh stainless steel basket under ambient conditions. The sample was loaded and unloaded at 40% RH and 25° C. (typical room conditions). The standard isotherm was performed at 25° C. at 10% RH intervals over a 0-90% RH range. Data analysis was undertaken in Microsoft Excel using DVS Analysis Suite v6.0.0.7.
Hygroscopicity of Form A was determined by moisture adsorption and desorption.

The mark [4] stands for this setting: fed vs fasted, healthy adult males, 20 mg Compound A.

Structures are written as SMILES.

For the compound `CO[C@H]1CC[C@H](N2C(=O)CNc3ncc(-c4ccc(C(C)(C)O)nc4)nc32)CC1` [Compound A, 7-(6-(2-hydroxypropan-2-yl)pyridin-3-yl)-1-((trans)-4-methoxycyclohexyl)-3,4-dihydropyrazino[2,3-b]pyrazin-2(1H)-one], the CL/F is on record as 20.3 L/h in data set [1] (Treatment A: one 20-mg Compound A API-in-capsule, oral, fasted, n = 18, geometric mean); 19.9 L/h in data set [2] (Fasted (n = 11)); 16.7 L/h in data set [2] (Fed (n = 11, high fat meal)). The half-life in data set [1] (male, human, plasma, Treatment A: one 20-mg Compound A API-in-capsule, oral, fasted, n = 18, geometric mean) is 5.7 h; in data set [2] (Fasted (n = 11)), 5.3 h; in data set [2] (Fed (n = 11, high fat meal)), 5.2 h. For the same compound, the Vd/F was determined as 167 L in data set [1] (male, human, plasma, Treatment A: one 20-mg Compound A API-in-capsule, oral, fasted, n = 18, geometric mean, read-out: Vz/F); 151 L in data set [2] (Fasted (n = 11)); 125 L in data set [2] (Fed (n = 11, high fat meal)). For the same compound, the Tmax in data set [1] (male, human, Treatment A: one 20-mg Compound A API-in-capsule, oral, fasted, healthy adult males, n = 18, plasma, median) was 1.5 h; in data set [2] (Fasted (n = 11), healthy adult males), 1 h; in data set [2] (Fed (n = 11, high fat meal)) it was 3 h. Also, the Cmax was determined as 190 ng/mL in data set [1] (male, human, Treatment A: one 20-mg Compound A API-in-capsule, oral, fasted, n = 18, plasma, geometric mean); 182 ng/mL in data set [2] (Fasted (n = 11)); 156 ng/mL in data set [2] (Fed (n = 11, high fat meal)). Besides, the AUC(0-t) in data set [1] (male, human, Treatment A: one 20-mg Compound A API-in-capsule, oral, fasted, n = 18, plasma, geometric mean, read-out: AUC0-24) stood at 934 ng·h/mL; in data set [2] (Fasted (n = 11)), 955 ng·h/mL; in data set [2] (Fed (n = 11, high fat meal)), 1130 ng·h/mL. Moreover, the AUC(0-inf) in data set [1] (male, human, Treatment A: one 20-mg Compound A API-in-capsule, oral, fasted, n = 18, plasma, geometric mean, read-out: AUC0-∞) came out at 985 ng·h/mL; in data set [2] (Fasted (n = 11)), 1000 ng·h/mL; in data set [2] (Fed (n = 11, high fat meal)), 1200 ng·h/mL. Further, in data set [1] (single dose 20 mg, healthy adult male subjects), the “pharmacokinetics, tablet formulations vs API in capsule” value was “comparable”. The “decrease in Cmax with a high fat meal” value in data set [2] (setting [4]) is listed as around 17%. In addition, the “increase in overall exposure (AUCinf) with a high fat meal” value in data set [2] (setting [4]) is around 20%.
With `CO[C@H]1CC[C@H](N2C(=O)CNc3ncc(-c4ccc(C(C)(C)O)nc4)nc32)CC1` [Form A, 7-(6-(2-hydroxypropan-2-yl)pyridin-3-yl)-1-((trans)-4-methoxycyclohexyl)-3,4-dihydropyrazino[2,3-b]pyrazin-2(1H)-one], the hygroscopicity entry in data set [3] (DVS moisture adsorption and desorption) is “not hygroscopic”. Besides, the “XRPD diffractogram after full adsorption/desorption cycle” value in data set [3] (after DVS cycle) is “unchanged from the initial Form A”. Besides, the “water uptake (mass gain)” value is given as below 0.1 % w/w in data set [3] and “less than 0.1 % w/w” in data set [3] (listed as Form A of Compound A). The weight gain result in data set [3] (increase in humidity from about 0% to about 50% relative humidity at about 25° C.) is “about 0.1 % w/w”; in data set [3] (increase in humidity from about 0% to about 95% relative humidity at about 25° C.), “about 0.3 % w/w”. In data set [3] (increase in humidity from about 80% to about 90% relative humidity), the mass gain result is recorded as “about 0.5 % w/w”.
